Assay results taken from patent US10723724B2, “Compounds for treating degenerative diseases of central nervous system or brain tumor, and uses thereof” (SUN YAT-SEN UNIVERSITY, priority 2016, dated 2020).

Tests used:
Assay type in all cases: biochemical
CSNK1D (CK1 delta) = target: T1, CSNK1D (CK1 delta) (Homo sapiens, UniProt P48730); assay: Kinase screening service: CSNK1D; conditions: average of duplicates
T1 construct: purchased Life Technologies Corporation (Kinase Screening Service)
Description: (§1) The inhibitory effect of PT109 on other kinases including SGK and JNK was detected by the Kinase Screening Service of Life Technologies Corporation (The concentration of compound 9 was 10 μM, measurements were performed in duplicates, and the value was represented by an average) to investigate the selectivity of the compound for JNK and SGK1.

NTRK1 (TRKA) = target: T2, NTRK1 (TRKA) (Homo sapiens, UniProt P04629); assay: Kinase screening service: NTRK1; conditions: average of duplicates
T2 construct: purchased Life Technologies Corporation (Kinase Screening Service)
Description: as §1

[1] = target: T3, PIK3CA/PIK3R1 (p110 alpha/p85 alpha) (Homo sapiens, UniProt P42336); assay: Kinase screening service: PIK3CA/PIK3R1; conditions: average of duplicates
T3 construct: purchased Life Technologies Corporation (Kinase Screening Service)
Description: as §1

MAPK8 (JNK1) = target: T4, MAPK8 (JNK1) (Homo sapiens, UniProt P45983); assay: Kinase screening service (Life Technologies): JNK1
T4 construct: purchased Life Technologies Corporation (kinase screening service)
T4 sequence (P45983 whole entry): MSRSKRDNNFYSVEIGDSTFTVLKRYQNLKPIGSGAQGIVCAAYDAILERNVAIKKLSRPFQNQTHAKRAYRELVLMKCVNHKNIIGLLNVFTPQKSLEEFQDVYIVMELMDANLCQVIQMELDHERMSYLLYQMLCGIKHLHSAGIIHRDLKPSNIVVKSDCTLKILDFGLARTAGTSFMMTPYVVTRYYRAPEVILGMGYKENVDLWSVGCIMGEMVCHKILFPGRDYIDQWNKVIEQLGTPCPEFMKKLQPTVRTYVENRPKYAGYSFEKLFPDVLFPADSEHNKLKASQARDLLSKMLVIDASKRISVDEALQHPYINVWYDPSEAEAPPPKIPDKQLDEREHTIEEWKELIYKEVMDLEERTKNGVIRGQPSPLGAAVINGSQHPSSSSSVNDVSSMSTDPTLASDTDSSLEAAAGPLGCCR
Description: (§2) The inhibitory effect of PT109 on SGK and INK was detected by the kinase screening commercialization service of Life Technologies Corporation.
as §1

NTRK3 (TRKC) = target: T5, NTRK3 (TRKC) (Homo sapiens, UniProt Q16288); assay: Kinase screening service: NTRK3; conditions: average of duplicates
T5 construct: purchased Life Technologies Corporation (Kinase Screening Service)
Description: as §1

MAPK10 (JNK3) = target: T6, MAPK10 (JNK3) (Homo sapiens, UniProt P53779); assay: Kinase screening service (Life Technologies): JNK3; conditions: average of duplicates
T6 construct: purchased Life Technologies Corporation (kinase screening service)
Description: as §2, §1

WNK3 = target: T7, WNK3 (Homo sapiens, UniProt Q9BYP7); assay: Kinase screening service: WNK3; conditions: average of duplicates
T7 construct: purchased Life Technologies Corporation (Kinase Screening Service)
Description: as §1

TEC = target: T8, TEC (Homo sapiens, UniProt P42680); assay: Kinase screening service: TEC; conditions: average of duplicates
T8 construct: purchased Life Technologies Corporation (Kinase Screening Service)
T8 sequence (P42680 whole entry): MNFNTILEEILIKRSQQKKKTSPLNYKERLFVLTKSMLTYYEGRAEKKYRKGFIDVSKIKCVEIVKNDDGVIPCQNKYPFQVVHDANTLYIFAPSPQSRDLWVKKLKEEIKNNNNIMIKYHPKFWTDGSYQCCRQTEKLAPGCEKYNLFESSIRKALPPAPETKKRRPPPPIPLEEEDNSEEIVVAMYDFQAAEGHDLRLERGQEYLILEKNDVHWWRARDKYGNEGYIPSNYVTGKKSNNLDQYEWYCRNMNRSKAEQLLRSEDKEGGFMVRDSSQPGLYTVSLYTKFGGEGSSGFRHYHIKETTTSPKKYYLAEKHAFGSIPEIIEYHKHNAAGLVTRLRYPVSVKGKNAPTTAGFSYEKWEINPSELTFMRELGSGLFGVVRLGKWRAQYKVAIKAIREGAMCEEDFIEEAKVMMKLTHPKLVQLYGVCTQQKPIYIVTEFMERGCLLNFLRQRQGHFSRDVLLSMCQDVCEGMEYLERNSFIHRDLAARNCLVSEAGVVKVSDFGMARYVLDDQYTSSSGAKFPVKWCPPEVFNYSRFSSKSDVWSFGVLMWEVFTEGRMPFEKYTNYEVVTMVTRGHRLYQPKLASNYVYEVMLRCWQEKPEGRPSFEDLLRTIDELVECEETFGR
Description: as §1

AKT2 (PKB beta) = target: T9, AKT2 (PKB beta) (Homo sapiens, UniProt P31751); assay: Kinase screening service: AKT2; conditions: average of duplicates
T9 construct: purchased Life Technologies Corporation (Kinase Screening Service)
Description: as §1

MST1R (RON) = target: T10, MST1R (RON) (Homo sapiens, UniProt Q04912); assay: Kinase screening service: MST1R; conditions: average of duplicates
T10 construct: purchased Life Technologies Corporation (Kinase Screening Service)
Description: as §1

STK22D (TSSK1) = target: T11, STK22D (TSSK1) (Homo sapiens, UniProt Q9BXA7); assay: Kinase screening service: STK22D; conditions: average of duplicates
T11 construct: purchased Life Technologies Corporation (Kinase Screening Service)
Description: as §1

PAK6 = target: T12, PAK6 (Homo sapiens, UniProt Q9NQU5); assay: Kinase screening service: PAK6; conditions: average of duplicates
T12 construct: purchased Life Technologies Corporation (Kinase Screening Service)
Description: as §1

DYRK1A = target: T13, DYRK1A (Homo sapiens, UniProt Q13627); assay: Kinase screening service: DYRK1A; conditions: average of duplicates
T13 construct: purchased Life Technologies Corporation (Kinase Screening Service)
Description: as §1

EGFR (ErbB1) = target: T14, EGFR (ErbB1) (Homo sapiens, UniProt P00533); assay: Kinase screening service: EGFR; conditions: average of duplicates
T14 construct: purchased Life Technologies Corporation (Kinase Screening Service)
T14 sequence (P00533 25-1210): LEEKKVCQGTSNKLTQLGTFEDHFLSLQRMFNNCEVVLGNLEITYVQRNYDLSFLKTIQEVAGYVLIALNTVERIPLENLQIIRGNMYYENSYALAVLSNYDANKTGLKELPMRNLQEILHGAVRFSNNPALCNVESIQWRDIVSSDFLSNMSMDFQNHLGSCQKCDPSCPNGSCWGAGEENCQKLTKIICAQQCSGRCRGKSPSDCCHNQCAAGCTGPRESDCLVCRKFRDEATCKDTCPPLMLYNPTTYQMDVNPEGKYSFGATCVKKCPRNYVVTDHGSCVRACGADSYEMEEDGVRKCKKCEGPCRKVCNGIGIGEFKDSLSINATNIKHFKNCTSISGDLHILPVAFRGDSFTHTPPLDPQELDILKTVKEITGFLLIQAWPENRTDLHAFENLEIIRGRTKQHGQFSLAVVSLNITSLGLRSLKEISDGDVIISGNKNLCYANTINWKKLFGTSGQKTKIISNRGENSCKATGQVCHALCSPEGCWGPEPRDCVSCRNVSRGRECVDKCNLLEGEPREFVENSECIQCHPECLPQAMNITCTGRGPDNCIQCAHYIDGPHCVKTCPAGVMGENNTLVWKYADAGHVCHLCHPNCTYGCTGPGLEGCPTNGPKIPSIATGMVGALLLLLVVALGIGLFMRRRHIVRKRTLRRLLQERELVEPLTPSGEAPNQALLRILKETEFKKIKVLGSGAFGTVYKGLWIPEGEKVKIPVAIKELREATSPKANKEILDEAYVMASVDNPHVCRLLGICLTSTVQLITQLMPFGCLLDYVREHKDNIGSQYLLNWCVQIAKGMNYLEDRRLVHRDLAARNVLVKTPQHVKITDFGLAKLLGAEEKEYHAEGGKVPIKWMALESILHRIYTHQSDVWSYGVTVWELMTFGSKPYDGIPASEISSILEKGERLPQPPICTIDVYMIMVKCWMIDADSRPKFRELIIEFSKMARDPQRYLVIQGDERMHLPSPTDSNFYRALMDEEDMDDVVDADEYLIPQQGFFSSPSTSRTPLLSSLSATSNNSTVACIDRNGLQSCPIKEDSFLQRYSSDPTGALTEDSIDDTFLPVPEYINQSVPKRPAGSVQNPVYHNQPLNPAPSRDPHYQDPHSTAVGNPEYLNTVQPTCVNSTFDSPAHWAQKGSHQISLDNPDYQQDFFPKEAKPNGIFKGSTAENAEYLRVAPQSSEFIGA
Description: as §1

PDK1 Direct = target: T15, PDK1 Direct (Homo sapiens, UniProt O15530); assay: Kinase screening service: PDK1 Direct; conditions: average of duplicates
T15 construct: purchased Life Technologies Corporation (Kinase Screening Service)
Description: as §1

GSK3B (GSK3 beta) = target: T16, GSK3B (GSK3 beta) (Homo sapiens, UniProt P49841); assay: Kinase screening service: GSK3B; conditions: average of duplicates
T16 construct: purchased Life Technologies Corporation (Kinase Screening Service)
T16 sequence (P49841 whole entry): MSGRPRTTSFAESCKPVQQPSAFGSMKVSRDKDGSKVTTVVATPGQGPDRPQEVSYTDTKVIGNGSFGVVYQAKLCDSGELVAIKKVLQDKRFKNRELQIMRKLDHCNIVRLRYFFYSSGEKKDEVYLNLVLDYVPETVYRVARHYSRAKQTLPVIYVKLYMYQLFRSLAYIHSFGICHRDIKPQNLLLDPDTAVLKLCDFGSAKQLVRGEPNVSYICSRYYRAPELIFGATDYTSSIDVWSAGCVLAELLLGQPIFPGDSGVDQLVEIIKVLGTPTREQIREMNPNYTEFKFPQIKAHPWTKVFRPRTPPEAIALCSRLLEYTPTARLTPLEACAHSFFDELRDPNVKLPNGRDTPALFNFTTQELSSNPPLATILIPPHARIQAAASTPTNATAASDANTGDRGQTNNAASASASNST
Description: as §1

MAPK9 (JNK2) = target: T17, MAPK9 (JNK2) (Homo sapiens, UniProt P45984); assay: Kinase screening service (Life Technologies): JNK2; conditions: average of duplicates
T17 construct: purchased Life Technologies Corporation (kinase screening service)
Description: as §2, §1

PIK3C3 (hVPS34) = target: T18, PIK3C3 (hVPS34) (Homo sapiens, UniProt Q8NEB9); assay: Kinase screening service: PIK3C3; conditions: average of duplicates
T18 construct: purchased Life Technologies Corporation (Kinase Screening Service)
Description: as §1

PRKCI (PKC iota) = target: T19, PRKCI (PKC iota) (Homo sapiens, UniProt P41743); assay: Kinase screening service: PRKCI; conditions: average of duplicates
T19 construct: purchased Life Technologies Corporation (Kinase Screening Service)
Description: as §1

NEK6 = target: T20, NEK6 (Homo sapiens, UniProt Q9HC98); assay: Kinase screening service: NEK6; conditions: average of duplicates
T20 construct: purchased Life Technologies Corporation (Kinase Screening Service)
T20 sequence (Q9HC98 whole entry): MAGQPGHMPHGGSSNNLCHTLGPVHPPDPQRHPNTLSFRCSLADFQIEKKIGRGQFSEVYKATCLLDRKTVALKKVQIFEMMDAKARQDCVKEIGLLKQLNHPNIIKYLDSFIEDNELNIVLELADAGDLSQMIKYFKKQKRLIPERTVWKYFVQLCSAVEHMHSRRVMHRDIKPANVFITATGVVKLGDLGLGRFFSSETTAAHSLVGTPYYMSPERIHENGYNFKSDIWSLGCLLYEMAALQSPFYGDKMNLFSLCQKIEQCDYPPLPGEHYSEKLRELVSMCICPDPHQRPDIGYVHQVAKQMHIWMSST
Description: as §1

RPS6KA4 (MSK2) = target: T21, RPS6KA4 (MSK2) (Homo sapiens, UniProt O75676); assay: Kinase screening service: RPS6KA4; conditions: average of duplicates
T21 construct: purchased Life Technologies Corporation (Kinase Screening Service)
Description: as §1

CDK5/p35 = target: T22, CDK5/p35 (Homo sapiens, UniProt Q00535); assay: Kinase screening service: CDK5/p35; conditions: average of duplicates
T22 construct: purchased Life Technologies Corporation (Kinase Screening Service)
Description: as §1

WNK2 = target: T23, WNK2 (Homo sapiens, UniProt Q9Y3S1); assay: Kinase screening service: WNK2; conditions: average of duplicates
T23 construct: purchased Life Technologies Corporation (Kinase Screening Service)
Description: as §1

MAP3K3 (MEKK3) = target: T24, MAP3K3 (MEKK3) (Homo sapiens, UniProt Q99759); assay: Kinase screening service: MAP3K3; conditions: average of duplicates
T24 construct: purchased Life Technologies Corporation (Kinase Screening Service)
Description: as §1

CDK5/p25 = target: T25, CDK5/p25 (Homo sapiens, UniProt Q00535); assay: Kinase screening service: CDK5/p25; conditions: average of duplicates
T25 construct: purchased Life Technologies Corporation (Kinase Screening Service)
Description: as §1

[2] = target: T26, MAP2K1 (MEK1) S218D S222D (Homo sapiens, UniProt Q02750, S218D/S222D); assay: Kinase screening service: MAP2K1 S218D S222D; conditions: average of duplicates
T26 construct: purchased Life Technologies Corporation (Kinase Screening Service)
T26 sequence (Q02750 whole entry S218D/S222D): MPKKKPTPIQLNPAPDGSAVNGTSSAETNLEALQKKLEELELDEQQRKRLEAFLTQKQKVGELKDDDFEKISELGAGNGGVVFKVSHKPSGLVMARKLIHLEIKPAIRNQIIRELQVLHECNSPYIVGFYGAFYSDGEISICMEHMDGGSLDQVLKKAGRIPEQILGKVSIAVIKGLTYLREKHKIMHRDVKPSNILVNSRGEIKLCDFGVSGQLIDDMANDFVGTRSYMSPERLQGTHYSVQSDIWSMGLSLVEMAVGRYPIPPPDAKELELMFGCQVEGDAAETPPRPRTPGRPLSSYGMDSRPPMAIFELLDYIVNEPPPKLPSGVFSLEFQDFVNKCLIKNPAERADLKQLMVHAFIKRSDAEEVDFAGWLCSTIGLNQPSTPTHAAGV
Description: as §1

CSNK2A1 (CK2 alpha 1) = target: T27, CSNK2A1 (CK2 alpha 1) (Homo sapiens, UniProt P68400); assay: Kinase screening service: CSNK2A1; conditions: average of duplicates
T27 construct: purchased Life Technologies Corporation (Kinase Screening Service)
T27 sequence (P68400 whole entry): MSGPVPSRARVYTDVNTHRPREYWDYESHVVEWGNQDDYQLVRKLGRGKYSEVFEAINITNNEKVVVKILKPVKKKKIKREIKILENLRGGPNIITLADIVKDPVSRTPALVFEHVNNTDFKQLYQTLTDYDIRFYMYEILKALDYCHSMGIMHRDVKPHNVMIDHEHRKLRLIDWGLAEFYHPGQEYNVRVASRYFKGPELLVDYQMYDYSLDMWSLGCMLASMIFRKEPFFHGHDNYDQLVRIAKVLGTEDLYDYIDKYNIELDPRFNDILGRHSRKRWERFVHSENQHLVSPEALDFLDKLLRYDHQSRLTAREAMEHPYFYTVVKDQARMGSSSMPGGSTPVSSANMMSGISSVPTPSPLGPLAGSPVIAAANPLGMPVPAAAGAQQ
Description: as §1

NEK7 = target: T28, NEK7 (Homo sapiens, UniProt Q8TDX7); assay: Kinase screening service: NEK7; conditions: average of duplicates
T28 construct: purchased Life Technologies Corporation (Kinase Screening Service)
Description: as §1

PIK3CG (p110 gamma) = target: T29, PIK3CG (p110 gamma) (Homo sapiens, UniProt P48736); assay: Kinase screening service: PIK3CG; conditions: average of duplicates
T29 construct: purchased Life Technologies Corporation (Kinase Screening Service)
Description: as §1

MKNK2 (MNK2) = target: T30, MKNK2 (MNK2) (Homo sapiens, UniProt Q9HBH9); assay: Kinase screening service: MKNK2; conditions: average of duplicates
T30 construct: purchased Life Technologies Corporation (Kinase Screening Service)
T30 sequence (Q9HBH9 whole entry): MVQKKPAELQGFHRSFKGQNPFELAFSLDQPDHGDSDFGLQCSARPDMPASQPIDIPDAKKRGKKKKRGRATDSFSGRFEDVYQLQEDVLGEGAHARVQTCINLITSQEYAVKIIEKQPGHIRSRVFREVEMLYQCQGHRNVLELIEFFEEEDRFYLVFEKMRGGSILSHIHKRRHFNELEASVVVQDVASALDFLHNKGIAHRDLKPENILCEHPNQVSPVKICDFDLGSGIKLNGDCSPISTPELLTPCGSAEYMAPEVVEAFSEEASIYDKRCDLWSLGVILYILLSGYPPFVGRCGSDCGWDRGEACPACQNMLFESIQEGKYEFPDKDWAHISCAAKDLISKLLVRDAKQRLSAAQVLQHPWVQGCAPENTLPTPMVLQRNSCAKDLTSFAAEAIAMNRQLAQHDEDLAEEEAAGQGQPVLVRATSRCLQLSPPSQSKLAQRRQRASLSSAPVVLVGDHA
Description: as §1

CHUK (IKK alpha) = target: T31, CHUK (IKK alpha) (Homo sapiens, UniProt O15111); assay: Kinase screening service: CHUK; conditions: average of duplicates
T31 construct: purchased Life Technologies Corporation (Kinase Screening Service)
Description: as §1

FGFR4 = target: T32, FGFR4 (Homo sapiens, UniProt P22455); assay: Kinase screening service: FGFR4; conditions: average of duplicates
T32 construct: purchased Life Technologies Corporation (Kinase Screening Service)
Description: as §1

CDK1/cyclin B = target: T33, CDK1/cyclin B (Homo sapiens, UniProt P06493); assay: Kinase screening service: CDK1/cyclin B; conditions: average of duplicates
T33 construct: purchased Life Technologies Corporation (Kinase Screening Service)
T33 sequence (P06493 whole entry): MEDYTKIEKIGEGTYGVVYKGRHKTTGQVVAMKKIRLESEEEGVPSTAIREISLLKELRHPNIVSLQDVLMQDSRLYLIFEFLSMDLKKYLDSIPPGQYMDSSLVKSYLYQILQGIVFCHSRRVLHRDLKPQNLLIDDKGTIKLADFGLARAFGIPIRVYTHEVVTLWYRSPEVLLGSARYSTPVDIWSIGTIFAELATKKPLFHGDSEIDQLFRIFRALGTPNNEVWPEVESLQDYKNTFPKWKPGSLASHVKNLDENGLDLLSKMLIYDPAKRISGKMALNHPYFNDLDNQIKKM
T33 sequence (P14635 whole entry partner): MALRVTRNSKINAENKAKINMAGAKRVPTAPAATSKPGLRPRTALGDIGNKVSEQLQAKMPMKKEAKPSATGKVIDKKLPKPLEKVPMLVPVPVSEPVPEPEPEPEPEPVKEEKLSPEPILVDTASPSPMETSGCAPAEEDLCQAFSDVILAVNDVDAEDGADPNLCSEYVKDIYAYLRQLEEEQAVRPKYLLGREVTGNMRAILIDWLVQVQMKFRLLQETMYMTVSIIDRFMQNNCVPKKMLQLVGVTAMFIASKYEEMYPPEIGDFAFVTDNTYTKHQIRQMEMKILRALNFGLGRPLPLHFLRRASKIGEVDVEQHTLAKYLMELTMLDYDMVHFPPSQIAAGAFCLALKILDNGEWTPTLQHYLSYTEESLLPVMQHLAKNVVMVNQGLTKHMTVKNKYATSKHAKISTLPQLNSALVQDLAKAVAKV
Description: as §1

PRKCA (PKC alpha) = target: T34, PRKCA (PKC alpha) (Homo sapiens, UniProt P17252); assay: Kinase screening service: PRKCA; conditions: average of duplicates
T34 construct: purchased Life Technologies Corporation (Kinase Screening Service)
Description: as §1

[3] = target: T35, MAP3K7/MAP3K7IP1 (TAK1-TAB1) (Homo sapiens, UniProt O43318); assay: Kinase screening service: MAP3K7/MAP3K7IP1; conditions: average of duplicates
T35 construct: purchased Life Technologies Corporation (Kinase Screening Service)
Description: as §1

ADRBK1 (GRK2) = target: T36, ADRBK1 (GRK2) (Homo sapiens, UniProt P25098); assay: Kinase screening service: ADRBK1; conditions: average of duplicates
T36 construct: purchased Life Technologies Corporation (Kinase Screening Service)
Description: as §1

[4] = target: T37, PIK3CD/PIK3R1 (p110 delta/p85 alpha) (Homo sapiens, UniProt O00329); assay: Kinase screening service: PIK3CD/PIK3R1; conditions: average of duplicates
T37 construct: purchased Life Technologies Corporation (Kinase Screening Service)
Description: as §1

O=C(CCCCC1CCSS1)NC1CCC(Nc2cccc3cnccc23)CC1 (centres unmarked) [PT109, 5-(1,2-dithiolan-3-yl)-N-(4-(isoquinolin-5-ylamino)cyclohexyl) pentanamide]
inhibition at 10 µM (CSNK1D (CK1 delta)): 6% | inhibition at 10 µM (NTRK1 (TRKA)): 35% | inhibition at 10 µM [1]: 56% | IC50 (MAPK8 (JNK1)): 0.143 µM | inhibition at 10 µM (MAPK8 (JNK1); 10 μM, average of duplicates): 104% | inhibition at 10 µM (NTRK3 (TRKC)): 28% | inhibition at 10 µM (MAPK10 (JNK3)): 90% | inhibition at 10 µM (WNK3): 7% | inhibition at 10 µM (TEC): 26% | inhibition at 10 µM (AKT2 (PKB beta)): 30% | inhibition at 10 µM (MST1R (RON)): 35% | inhibition at 10 µM (STK22D (TSSK1)): -2% | inhibition at 10 µM (PAK6): -16% | inhibition at 10 µM (DYRK1A): 16% | inhibition at 10 µM (EGFR (ErbB1)): -6% | inhibition at 10 µM (PDK1 Direct): 51% | inhibition at 10 µM (GSK3B (GSK3 beta)): 61% | inhibition at 10 µM (MAPK9 (JNK2)): 91% | inhibition at 10 µM (PIK3C3 (hVPS34)): 11% | inhibition at 10 µM (PRKCI (PKC iota)): -14% | inhibition at 10 µM (NEK6): 3% | inhibition at 10 µM (RPS6KA4 (MSK2)): 28% | inhibition at 10 µM (CDK5/p35): 26% | inhibition at 10 µM (WNK2): 13% | inhibition at 10 µM (MAP3K3 (MEKK3)): 3% | inhibition at 10 µM (CDK5/p25): 18% | inhibition at 10 µM [2]: 13% | inhibition at 10 µM (CSNK2A1 (CK2 alpha 1)): 14% | inhibition at 10 µM (NEK7): 2% | inhibition at 10 µM (PIK3CG (p110 gamma)): 9% | inhibition at 10 µM (MKNK2 (MNK2)): 26% | inhibition at 10 µM (CHUK (IKK alpha)): 16% | inhibition at 10 µM (FGFR4): -2% | inhibition at 10 µM (CDK1/cyclin B): 14% | inhibition at 10 µM (PRKCA (PKC alpha)): 25% | inhibition at 10 µM [3]: 39% | inhibition at 10 µM (ADRBK1 (GRK2)): 6% | inhibition at 10 µM [4]: 48%
